Assay results as given in US20210186903A1, “TREATMENT FOR DEMYELINATING DISEASE” (CAMBRIDGE ENTERPRISE LIMITED, priority 2018, published 2021).
“Also recorded” adds a separate entry of the source.

How the values were obtained:
aged OPCs [1] = test: Differentiation assay of cultured aged OPCs; assay type: cell-based, rat; conditions: for differentiation of aged OPCs: aged OPCs (20-24 months), T3 40 ng/ml, 9cRA 50 nM, miconazole 1 μM, benztropine 1.5 μM
Protocol: Adult rats (2-27 months) were decapitated after lethal injection of phenobarbital into the tail vein. The brains were removed quickly and placed into ice-cold isolation medium (Tab. S3, alternatively Hibernate A (Brainbits). The telencephalon and cerebellum were dissected in isolation medium; meninges, and the olfactory bulb were mechanically removed and the brain tissue was mechanically minced into 1 mm3 pieces. The tissue pieces were spun down at 100 g for 1 min at RT and the tissue was washed in HBSS− (no Mg2+ and Ca2+, Gibco). Each half of the brain was mixed with 5 ml of dissociation solution (34 U/ml papain (Worthington), 20 μg/ml DNAse Type IV (Gibco) in isolation medium). The brain tissue was dissociated on a shaker (50 rpm) 494 for 40 min at 35° C. The digestion was stopped by addition of ice cold HBSS−. The tissue was centrifuged (200 g, 3 min, RT), the supernatant completely aspirated and the tissue resuspended in isolation medium supplemented with 2% B27 and 2 mM sodium-pyruvate (trituration solution). The tissue was allowed to sit in this solution for 5 min. To obtain a single cell suspension the tissue suspension was triturated 10 times using first a 5 ml serological pipette and subsequently three fire polished glass pipettes (opening diameter >0.5 mm). After each trituration step the tissue suspension was allowed to sediment (approximately 1-2 min) and the supernatant (approximately 2 ml), containing the cells, was transferred into a fresh tube. After each round of trituration 2 ml of fresh trituration solution were added. To remove accidentally transferred undigested tissue bits, the collected supernatant was filtered through 70 μm cell strainers into tubes that contained 90% isotonic Percoll (GE Healthcare, 17-0891-01, in 10×PBS pH7.2 (Lifetech). The final volume was topped up with phenol-red free DMEM/F12 with HEPES (Gibco) and mixed to yield a homogenous suspension with a final Percoll concentration of 22.5%. The single cell suspension was separated from remaining debris particles by gradient density centrifugation (800 g, 20 min, RT, without break). The myelin debris and all layers without cells were discarded and the brain cell containing phase (last 2 ml) and cell pellet were resuspended in HBSS+ and combined in a fresh 15 ml tubes and centrifuged (300 g, 5 min, RT). The cell pellet was resuspended in red blood cell lysis buffer (Sigma, R7757) and incubated for 1 min at RT to remove red blood cells. 10 ml of HBSS+ were added to this cell suspension and spun down (300 g, 5 min, RT). The cell pellets were resuspended in 0.5 ml modified Milteny washing buffer (MWB, 2 mM EDTA, 2 mM Na-Pyruvate, 0.5% BSA in PBS, pH 7.3) supplemented with 10 ng/ml human recombinant insulin (Gibco). […]

[2] = test system: young adult OPCs (2-3 months old); conditions: T3 40 ng/ml, 9cRA 50 nM, miconazole 1 μM, benztropine 1.5 μM, O4, CNPase, MBP markers
Protocol: Adult rats (2-27 months) were decapitated after lethal injection of phenobarbital into the tail vein. The brains were removed quickly and placed into ice-cold isolation medium (Tab. S3, alternatively Hibernate A (Brainbits). The telencephalon and cerebellum were dissected in isolation medium; meninges, and the olfactory bulb were mechanically removed and the brain tissue was mechanically minced into 1 mm3 pieces. The tissue pieces were spun down at 100 g for 1 min at RT and the tissue was washed in HBSS− (no Mg2+ and Ca2+, Gibco). Each half of the brain was mixed with 5 ml of dissociation solution (34 U/ml papain (Worthington), 20 μg/ml DNAse Type IV (Gibco) in isolation medium). The brain tissue was dissociated on a shaker (50 rpm) 494 for 40 min at 35° C. The digestion was stopped by addition of ice cold HBSS−. The tissue was centrifuged (200 g, 3 min, RT), the supernatant completely aspirated and the tissue resuspended in isolation medium supplemented with 2% B27 and 2 mM sodium-pyruvate (trituration solution). The tissue was allowed to sit in this solution for 5 min. To obtain a single cell suspension the tissue suspension was triturated 10 times using first a 5 ml serological pipette and subsequently three fire polished glass pipettes (opening diameter >0.5 mm). […]

aged OPCs [3] = test: Comet assay (DNA damage) of aged OPCs; assay type: cell-based, rat
Protocol: For comet assays of freshly isolated OPCs approximately 5000 OPCs were resuspended in 100 μl PBS and mixed with 300 μl 1% low melting point agarose (37° C.). Alternatively, when OPCs were cultured prior to the assay, the cells were detached using TrypLE 1× Select (Gibco) for 8 min at 37° C. The comet assay was then performed as described in reference 33. Briefly, OPCs were centrifuged at 300 g for 5 min. at room temperature and the cell pellet was resuspended with 100 μl PBS and then mixed with 300 μl molten low-melting point agarose pre-incubated at 37° C. The cell-agarose suspension was then applied gently onto polysine slides that were pre-treated with 1% agarose and allowed 590 to solidify at 4° C. The slides were submersed in alkaline cell lysis buffer (0.3M NaOH, 100 mM EDTA, 0.1% (w/v) N592 Lauroylsarcosine (Sigma, 61745), 1.2M NaCl in ddH2O) for 16 hours at 4° C. in the dark. […] Finally, electrophoresed and propidium iodide stained DNA was visualized using a Zeiss Axiovision Fluorescence microscope (Carl Zeiss), and 50-100 nuclei per animal were visually scored according to published protocols^34. Statistical significance was determined comparing respective damage categories between experimental groups by a two-tailed unpaired t-test. […]

aged female SD rats = test: Remyelination after ethidium bromide lesion of caudal cerebellar peduncle in aged rats; assay type: in vivo, rat; conditions: for degree of remyelination versus control animals: aged rats fed ad libitum, metformin 300 mg/kg bodyweight in drinking water from 15 months, lesion at 18 months, assessed 50 days later, rank
Protocol: The animals were housed under standard laboratory conditions on a 12 h light/dark cycle with constant access to food and water. […] For metformin treatment 15 months old female SD rats that were fed ad libitum received metformin (Glucophage) in their drinking water (300 mg/kg bodyweight per day). Metformin treatment was interrupted for two days before and three days after surgery and then commenced to the end of the study (21 days after lesion induction). Fluid consumption was continuously monitored to adapt dosages. For studies involving demyelination, female Sprague Dawley rats (Harlan Laboratories) 18 months of age were used. The rats were anesthetized with buprenorphine (0.03 mg/kg, s.c.) 471 and 2.5% isoflurane. Demyelination was induced by stereotaxic injection of 4 μl of 0.01% ethidium bromide (EB) into the caudal cerebellar peduncles (CCPs), as previously described 28. EB was delivered at a rate of 1 μl/min. After EB delivery the injection needle remained in position for additional 4 min. To assess remyelination the rats were transcardially perfused with 4% glutaraldehyde and 0.4 mM CaCl2) in PBS. The cerebellum was cut in to transverse 1 mm thick sections. The tissue was fixed in 2% osmium-tetroxide at 4° C. overnight, dehydrated through a series of washes in ethanol and propylene-oxide and embedded in resin. From the resin blocks 1 μm thick sections were cut and stained with 1% toluidine blue.

aged OPCs [4] = test: qRT-PCR for OPC genes and Cdkn2a in cultured aged OPCs; assay type: cell-based, rat; conditions: aged OPCs (≥18 months)
Protocol: After isolation, OPCs were left to recover in OPC medium (60 μg/ml N-Acetyl cysteine (Sigma), 10 μg/ml human recombinant insulin (Gibco), 1 mM sodium pyruvate (Gibco), 50 μg/ml apo-transferrin (Sigma), 16.1 μg/ml putrescine (Sigma), 40 ng/ml sodium selenite (Sigma), 60 ng/ml progesterone (Sigma), 330 μg/ml bovine serum albumin (Sigma)) supplemented with b-FGF and PDGF (30 ng/ml each, Peprotech).
RNA was isolated from freshly purified OPCs or from cultured OPCs according to the Directzol RNA MicroPrep Kit (Zymo Research; R2061). All RNA samples were stored at −80° C. prior to further processing. cDNA was generated using the QuantiTect Reverse Transcription Kit's according to the instructions of the manufacturer (Qiagen; 205310). For RT-qPCR, primers (see Extended Data Tab. 5) were used at a concentration of […]. The efficiency of each primer was greater than […] as determined for each primer pair by serial dilutions of OPC cDNA. cDNA, primers, and the Syber Green Master Mix (Qiagen; 04141) were mixed as instructed by the manufacturer, and RT-qPCR and melting curve analysis were performed on Life Technologies' Quantstudio 6 Flex Real-Time PCR System. Fold changes in gene expression were calculated using the delta delta Ct method in Microsoft Excel. Statistical significance was determined using two-tailed unpaired t-tests assuming equal variances.

| Structure (SMILES) | differentiation of aged OPCs (aged OPCs [1]) | differentiation of young OPCs [2] | DNA damage, comet assay (aged OPCs [3]; aged OPCs (≥18 months), 100 μM metformin during first 5 days of culture) | hallmarks of aging of aged OPCs (aged OPCs [3]; aged OPCs, DNA damage among the hallmarks) | proportion of MBP expressing oligodendrocytes with highly arborized morphology (aged OPCs [1]; aged OPCs exposed to metformin, in the presence of pro-differentiation factors) | differentiation of aged OPCs (differentiation potential), agent added before differentiation (aged OPCs [1]; aged OPCs, agent added prior to pro-differentiation compounds / onset of differentiation, Olig2+MBP+ cells) | degree of remyelination versus control animals (aged female SD rats) | degree of remyelination versus control animals (aged female SD rats; listed as Metformin) | degree of remyelination versus ADF animals (aged female SD rats; aged rats, metformin 300 mg/kg in drinking water for three months prior to lesion, compared with alternate day fasting) | expression of Cdkn2a (senescence marker) (aged OPCs [4]; 100 μM metformin during first 5 days of culture) | expression of Pdgfra and Ascl1 (OPC self-renewal genes) (aged OPCs [4]; 100 μM metformin during first 5 days of culture with growth factors) |
| --- | --- | --- | --- | --- | --- | --- | --- | --- | --- | --- | --- |
| CC1=C(/C=C/C(C)=C\C=C\C(C)=C\C(=O)O)C(C)(C)CCC1 [9-cis-retinoic acid] | but not aged OPCs | enhanced differentiation in young | – | – | – | – | – | – | – | – | – |
| CN1[C@@H]2CC[C@H]1C[C@@H](OC(c1ccccc1)c1ccccc1)C2 [benztropine] | but not aged OPCs | enhanced differentiation in young | – | – | – | – | – | – | – | – | – |
| CN(C)C(=N)NC(=N)N [metformin, N,N-dimethylbiguanide] | – | – | less DNA damage | ameliorates hallmarks of ageing | significant increase | restores the ability of aged OPCs to differentiate; also recorded: enhanced differentiation of aged OPCs | enhances remyelination in aged rats | significantly higher compared to control animals | comparable to animals undergoing ADF | expressed significantly less Cdkn2a | increased their expression of Pdgfra and Ascl1 |
